# Source: patent US20240245085A1, “FLAVORING COMPOSITIONS FOR TASTE IMPROVEMENT” (SYMRISE AG, priority 2021, published 2024)
# “Also recorded” adds a separate entry of the source.
# Assays:
# Assay type in all cases: in vivo
# [1] = tested on: naringin (100 mg/kg); assay: Bitter-duo test (paired comparison, trained panel, nose-clips) with naringin
# Description: (§1) A trained panel was given different samples with the bitter tasting substances caffeine (500 mg/kg), quinine (10 mg/kg) and naringin (100 mg/kg). Caffeine is the bitter principle of coffee and coffee-type beverages, quinine is used as food additive to flavor tonics or energy drinks and naringin is the bitter principle of grapefruit juice. Each test includes a different amount of bitter-masking substances or mixtures thereof. During the tests, the panellists wear nose-clips to exclude any olfactory impressions. These tests are referred to as bitter-duo tests. In a first trial, above mentioned bitter samples were mixed with 10 mg/kg eriodictyol-7-O-glucoside at a purity of >95%. […] In a second test, the bitter agents were mixed with 50 mg/kg eriocitrin at a purity of >95% and the bitter-masking effect evaluated by the panel.
# [2] = tested on: quinine (10 mg/kg); assay: Bitter-duo test (paired comparison, trained panel, nose-clips) with quinine
# Description: A trained panel was given different samples with the bitter tasting substances caffeine (500 mg/kg), quinine (10 mg/kg) and naringin (100 mg/kg). Caffeine is the bitter principle of coffee and coffee-type beverages, quinine is used as food additive to flavor tonics or energy drinks and naringin is the bitter principle of grapefruit juice. Each test includes a different amount of bitter-masking substances or mixtures thereof. During the tests, the panellists wear nose-clips to exclude any olfactory impressions. These tests are referred to as bitter-duo tests.
# In a first trial, above mentioned bitter samples were mixed with 10 mg/kg eriodictyol-7-O-glucoside at a purity of >95%.
# In a second test, the bitter agents were mixed with 50 mg/kg eriocitrin at a purity of >95% and the bitter-masking effect evaluated by the panel.
# Another trial was set-up using samples with 10 mg/kg quinine and 50 mg/kg eriodictyol (ED) alone or with an inventive flavoring composition containing eriodictyol-7-O-glucoside (EDMG) and neoeriocitrin (NEC) eriocitrin (EC). […] The same effect was observed when using neoeriocitrin instead of eriocitrin. The wt.-% are based on the dry weight of the flavoring composition.
# Other solvents than methanol, mixtures of solvents and different CV ratios can be used in order to achieve the same purification than with methanol as described herein. The column volume ration (CV) is the ratio of column bed volume and volume of solution flowing through column. The product was evaluated by a sensory panel (n=20).
# [3] = tested on: caffeine (500 mg/kg); assay: Bitter-duo test (paired comparison, trained panel, nose-clips) with caffeine
# Description: as §1
# [4] = Own taste of eriodictyol-7-O-glucoside at higher concentration; details: concentration above 50 mg/kg
# [5] = tested on: caffeine (500 mg/kg); assay: Pairwise bitter intensity rating (scale 1-100) in water with 500 mg/kg caffeine; details: for bitter masking of caffeine solution (in words): 50 mg/kg, 500 mg/kg caffeine; for Bitter intensity [0-100] of base: taste modulator 50 mg/kg in water with 500 mg/kg caffeine
# Description: The said mixture can be compared with further taste modulating compounds to impart taste modulating sensory effects. […] A masking mixture comprising three parts hesperetin, two parts naringenin and two parts of the inventive citrus hydrolysate (55 wt.-% ED, 11.1 wt.-% EDMG, 1.5 wt.-% EC) was tested with 50 mg/kg dosage against naringenin, hesperetin and homoeriodictyol (No. 1-3, Table 5). The compounds and the mixture were all solved in water with added 500 mg/kg caffeine as bitter agent. The panelists were asked to rate the bitter intensity of each sample of one sample pair on a scale of 1-100. […] Said mixtures can be obtained by mixing the inventive citrus hydrolysate with hydrolysates from orange (yielding hesperetin), grapefruit or bergamot (yielding naringenin) or bitter orange and lime among other citrus fruits.
# [6] = tested on: vegan patty; assay: Blind tasting of vegan patties by a panel (sensory profile)
# Description: A vegan patty has been produced containing the following ingredients: water, leguminose protein isolate, sun flower oil, leguminose protein concentrate, coconut oil, methylcellulose, fiber, salt, starch, lactic acid and sodium diacetate. Water, thickener and starch are mixed with water, pH is adjusted, proteins are added next followed by fibre and oil ingredients. Finally, a taste masking ingredient according to Table 4 is added. The ingredients are thoroughly mixed and the dough is formed to patties. The patties where baked in an oven at 200° C. After cooling the patties, patties were sliced and samples were coded for a blind tasting with a panel.
# [7] = Table 1, dosage 10 mg/kg, 20 panellists
# [8] = Table 2, dosage 10 mg/kg in table (text: 50 mg/kg), 20 panelists
smiles,measurement,setting,value
O=C1C[C@@H](c2ccc(O)c(O)c2)Oc2cc(O[C@@H]3O[C@H](CO)[C@@H](O)[C@H](O)[C@H]3O)cc(O)c21 [eriodictyol-7-O-glucoside],bitter-reducing effect (in words),"[1]; 10 mg/kg, purity >95%",not significant
same,Bitter masking activity (%),[1]; [7],−2.59%
same,bitter-reducing effect (in words),"[2]; 10 mg/kg, purity >95%, quinine 10 mg/kg",not significant
same,Bitter masking activity (%),"[2]; Table 1, dosage 10 mg/kg, quinine 10 mg/kg, 20 panellists",−7.42%
same,bitter-reducing effect (in words),"[3]; 10 mg/kg, purity >95%",not significant
same,Bitter masking activity (%),[3]; [7],−1.94%
same,own taste notes,[4],bitter notes
COc1ccc([C@@H]2CC(=O)c3c(O)cc(O)cc3O2)cc1O [Hesperetin],bitter masking of caffeine solution (in words),[5],not potent bitter masking compounds
same,Bitter intensity [0-100] of base,[5],39
O=C1C[C@@H](c2ccc(O)cc2)Oc2cc(O)cc(O)c21 [Naringenin],bitter masking of caffeine solution (in words),[5],not potent bitter masking compounds
same,Bitter intensity [0-100] of base,[5],36.4
"O=C1C[C@@H](c2ccc(O)c(O)c2)Oc2cc(O)cc(O)c21 [ED, Eriodictyol]",taste improving and bitter masking property (in words),[6],improved the taste profile
same,Bitter masking activity (%),"[2]; Table 3, dosage 50 mg/kg, 10 mg/kg quinine, 18-20 panellists",−31.0%
COc1cc([C@@H]2CC(=O)c3c(O)cc(O)cc3O2)ccc1O [Homoeriodictyol],taste improving and bitter masking property (in words),[6],improved the taste profile; also recorded: reduced the bitterness more than eriodictyol
same,Bitter intensity [0-100] of base,[5],37.5
"C[C@@H]1O[C@@H](OC[C@H]2O[C@@H](Oc3cc(O)c4c(c3)O[C@H](c3ccc(O)c(O)c3)CC4=O)[C@H](O)[C@@H](O)[C@@H]2O)[C@H](O)[C@H](O)[C@H]1O [eriocitrin, Eriocitrin]",bitter masking effect (in words),"[1]; 50 mg/kg, purity >95%",not significant
same,Bitter masking activity (%),[1]; [8],0.8%
same,bitter masking effect (in words),"[2]; 50 mg/kg, purity >95%, quinine 10 mg/kg",not significant
same,Bitter masking activity (%),"[2]; Table 2, dosage 10 mg/kg in table (text: 50 mg/kg), quinine 10 mg/kg, 20 panelists",−1.6%
same,bitter masking effect (in words),"[3]; 50 mg/kg, purity >95%",not significant
same,Bitter masking activity (%),[3]; [8],5.6%
